Results from patent publication US20150305372A1, “FEED INTAKE OF RUMINANTS USING GREEN FODDER FLAVORS” (BASF SE, priority 2014, published 2015).
“Also recorded” adds a separate entry of the source. Marks after values point to notes of the source that are not given here.

System: dairy cows having a high milk performance (German Holstein cattle)
Assay: Feeding study of trans-hex-2-enal and hexanal on feed intake, feed intake behavior, milk performance and milk composition of dairy cows
Assay type: in vivo
Settings: for FMI (fresh matter intake): 4.3 g/cow/day in TMR via wheat bran premix, control 43.6; for FMI (fresh matter intake) / Milk protein yield / Milk fat yield / DMI (% of BW) / Milk protein / Milk fat / DMI / ECM (energy-corrected milk) / Milk yield / Eating period / Frequency of visits: LSQ means; for FMI (fresh matter intake) / DMI / Eating period: p < 0.05; for Milk protein yield / Milk fat yield / DMI (% of BW) / Milk protein / Milk fat / DMI / ECM (energy-corrected milk) / Milk yield / Eating period / Frequency of visits: 4.3 g/cow/day in TMR; for Milk protein yield: control 1.04; for Milk fat yield: control 1.16; for DMI (% of BW): control 3.3; for Milk protein: control 3.36; for Milk fat: control 3.69; for DMI: control 22.2; for ECM (energy-corrected milk): control 30.2; for Milk yield: control 31.6; for Eating period: control 184; for Frequency of visits: visits to feed trough per day, control 33.1, p < 0.0001; for dry matter intake (DMI) compared with the control group, in words: A vs control p<0.067, B vs control p<0.0234; for visits to the feed trough: control 33.1 visits per day; for fresh matter intake (FMI) compared with the control group, in words: p<0.0001; for more frequent visits to the feed trough than the control group: per day, versus control group
Method: The purpose of the present study is to establish whether 4.3 g/cow/day of trans-hex-2-enal or 4.3 g/cow/day of hexanal affect the DMI value, the milk performance, the milk composition or the feed intake behavior (duration, frequency, etc.) of dairy cows.
The start of the study was calendar week 18 of the experimental year and the end of the study was calendar week 24 of the same year. The feed consumption was determined by means of feed troughs with electronic weight determination, produced by Insentec B.V. (Marknesse, Netherlands). The system identifies each animal by scanning the respective transponder on the neck band of the respective cow using a light barrier. After identification, the animal is allowed free access to the feed trough and the amount of feed taken in on each visit to the trough is recorded automatically.
The system thus determines all visits of each cow to the feed trough, the respective feed intake and the duration of the respective visit. The feed troughs were filled once a day at about 06.30 hours in the morning with an amount of about 70 kg of feed, after the residual feed of the previous day had been removed. During the morning milking, the feed troughs were closed for cleaning for a period of 20 to 30 minutes.
The milk yield was determined individually during each milking process and recorded by the Herd Management Software DairyPlan C21 (GEA Farm Technologies, Boenen, Germany). The cows were milked twice daily at 05.00 hours in the morning and 15.30 hours in the afternoon. Fresh water was freely available at all times.
Every Monday, after each milking, milk samples were taken and, for each cow, the milk composition (fat, protein, somatic cell count) was determined. The energy-corrected milk value (ECM) was determined according to the following equation: […]
All of the cows received a total mixed ration (TMR) (table 2) having a calculated mean daily feed intake of 22 kg of dry matter (DM). Trans-hex-2-enal and hexanal were added to the TMR and thus fed by a premix with wheat bran (trans-hex-2-enal/wheat bran for group A and hexanal/wheat bran for group B).
Samples of the TMR were withdrawn daily from each of the rations, combined to form a weekly sample and frozen until determination of the DM content of the TMRs. Samples of all feed components were taken every 14 days, frozen and pooled over the entire feeding trial up until laboratory analysis.
A standard model for statistical analysis using all parameters was adapted to the weekly data. This is a general, linear, mixed model with the cow as a chance effect and containing the following co-variables:
For the treatment effect, an “overall” P value was presented, and also a P value for the differences between the groups, which were tested both adapted and also non-adapted by means of the Tukey test.

Structure (SMILES)	daily FMI value, mean (4.3 g/cow/day)	daily milk production and milk composition compared with the control group, in words (4.3 g/cow/day)	FMI (fresh matter intake)	Milk protein yield	Milk fat yield	DMI (% of BW)	Milk protein	Milk fat	DMI	ECM (energy-corrected milk)	Milk yield	Eating period	Frequency of visits	dry matter intake (DMI) compared with the control group, in words (4.3 g/cow/day)	visits to the feed trough (4.3 g/cow/day)	fresh matter intake (FMI) compared with the control group, in words (4.3 g/cow/day)	more frequent visits to the feed trough than the control group (4.3 g/cow/day)
CCCCCC=O [Hexanal, hexanal]	48.3 kg FMI per day	no differences	48.3^b kg/d	1.06 kg/day	1.22 kg/day	3.7 % of BW	3.28%	3.77%	23.8^b kg/d	31.3 kg/day	32.7 kg/day	212^b min	45.2^b	significant advantage	45.2 times per day	higher; also recorded: significantly increased	37%
CCC/C=C/C=O [Trans-hex-2-enal]		no differences	47.8^b kg/d	1.06 kg/day	1.19 kg/day	3.6 % of BW	3.26%	3.66%	23.5^ab kg/d	31.1 kg/day	33.1 kg/day	206^ab min	48.6^b	significant advantage	48.6 times per day	higher; also recorded: significantly increased	47%
